Patent US8822463B2, “Methylcyclohexane derivatives and uses thereof” (Sk Biopharmaceuticals Co., Ltd., priority 2010, dated 2014)
Where a name gives a salt, the structure may show the parent alone.

Tests used:
[1] = test system: LPS-induced NO production in mouse microglia (BV2); experiment: LPS-induced NO production inhibition test, mouse microglia (BV2); format: cell-based; conditions: BV-2, BV2 cells, 20 ng/ml LPS, 24 hours, Griess reagent
Procedure: (§1) Mouse monocytes (RAW) and mouse microglia (BV2) cells were cultured on a 96-well transparent plate (Nunc) in such a way that each of the wells contained 60,000 and 35,000 cells respectively. After 18 hours, when stabilized, the cells were treated with lipopolysaccharide (Sigma, USA, Cat No. L2630) in a morbid state derived from 20 ng/ml of Escherichia coli O111:B4 and 4 different concentrations (50 uM, 12.5 uM, 3.1 uM, and 0.8 uM) of the compounds synthesized according to Examples 1 to 55. Then, the cells were cultured for 24 hours, and a concentration of increased NO was measured. The NO concentration was determined by measuring absorption at a wavelength of 540 nm after a Griess reagent including 0.1% N-(1-naphthyl)ethylenediamine dihydrochloride, 1% sulfanilamide, and 2.5% phosphoric acid were added thereto.

[2] = test system: LPS-induced NO production in mouse monocytes (RAW); experiment: LPS-induced NO production inhibition test, mouse monocytes (RAW); format: cell-based; conditions: Monocyte, RAW cells, 20 ng/ml LPS, 24 hours, Griess reagent
Procedure: as §1

Row | IC50 [1] | IC50 [2] | SMILES
1 | 26.3 µM | 32 µM | O=C(NC1CCC(COC(=O)N2CCCC2)CC1)OCc1cccc(Cl)n1 (stereo not shown) [Example 46, pyrrolidine-1-carboxylic acid 4-(6-chloro-pyridin-2-ylmethoxycarbonylamino)-cyclohexylmethyl ester]
2 | 21.1 µM | 13.1 µM | O=C(NC1CCC(COC(=O)N2CCCC2)CC1)OCc1ccc(Cl)nc1 (stereo not shown) [Example 47, pyrrolidine-1-carboxylic acid 4-(6-chloro-pyridin-3-ylmethoxycarbonylamino)-cyclohexylmethyl ester]
3 | 10.2 µM | 13.5 µM | Cc1ncccc1COC(=O)NC1CCC(COC(=O)N2CCCC2)CC1 (stereo not shown) [Example 48, pyrrolidine-1-carboxylic acid 4-(2-methyl-pyridin-3-ylmethoxycarbonylamino)-cyclohexylmethyl ester]
4 | 10.2 µM | 12 µM | Cc1cccc(COC(=O)NC2CCC(COC(=O)N3CCCC3)CC2)n1 (stereo not shown) [Example 49, pyrrolidine-1-carboxylic acid 4-(6-methyl-pyridin-2-ylmethoxycarbonylamino)-cyclohexylmethyl ester]
5 | 14.2 µM | 5.7 µM | O=C(NC1CCC(COC(=O)N2CCCC2)CC1)OCc1ccc(C(F)(F)F)nc1 (stereo not shown) [Example 50, pyrrolidine-1-carboxylic acid 4-(6-trifluoromethyl-pyridin-3-ylmethoxycarbonylamino)-cyclohexylmethyl ester]
6 | > 50 µM | 50 µM | O=C(NC1CCC(COC(=O)N2CCCC2)CC1)OCc1cccc[n+]1[O-] (stereo not shown) [Example 51, pyrrolidine-1-carboxylic acid 4-(1-oxy-pyridin-2-ylmethoxycarbonylamino)-cyclohexylmethyl ester]
7 | > 50 µM | 22.3 µM | O=C(NC1CCC(COC(=O)N2CCCC2)CC1)OCc1ccc[n+]([O-])c1 (stereo not shown) [Example 52, pyrrolidine-1-carboxylic acid 4-(1-oxy-pyridin-3-ylmethoxycarbonylamino)-cyclohexylmethyl ester]
8 | > 50 µM | 33.9 µM | O=C(NC1CCC(COC(=O)N2CCCC2)CC1)OCc1cc[n+]([O-])cc1 (stereo not shown) [Example 53, pyrrolidine-1-carboxylic acid 4-(1-oxy-pyridin-4-ylmethoxycarbonylamino)-cyclohexylmethyl ester]

The remaining lines, values behind:

Row | SMILES | IC50 [1] | IC50 [2]
9 | COc1ccc(CNC2CCC(COC(=O)N3CCCC3)CC2)cc1 (stereo not shown) [Example 38, pyrrolidine-1-carboxylic acid 4-(4-methoxy-benzylamino)-cyclohexylmethyl ester HCl salt] | > 50 µM | 35.8 µM
10 | COc1ccc(CCNC2CCC(COC(=O)N3CCCC3)CC2)cc1 (stereo not shown) [Example 39, pyrrolidine-1-carboxylic acid 4-[2-(4-methoxy-phenyl)-ethylamino]-cyclohexylmethyl ester HCl salt] | > 50 µM | > 50 µM
11 | O=C(NC1CCC(COC(=O)N2CCCC2)CC1)OCc1cccnc1 (stereo not shown) [Example 41, pyrrolidine-1-carboxylic acid 4-(pyridin-3-ylmethoxycarbonylamino)-cyclohexylmethyl ester] | > 50 µM | 50 µM
12 | O=C(NC1CCC(COC(=O)N2CCCC2)CC1)OCc1ccnc(Cl)c1 (stereo not shown) [Example 43, pyrrolidine-1-carboxylic acid 4-(2-chloro-pyridin-4-ylmethoxycarbonylamino)-cyclohexylmethyl ester] | 12 µM | 10.5 µM
13 | O=C(NC1CCC(COC(=O)N2CCCC2)CC1)OCc1cccnc1Cl (stereo not shown) [Example 44, pyrrolidine-1-carboxylic acid 4-(2-chloro-pyridin-3-ylmethoxycarbonylamino)-cyclohexylmethyl ester] | 16.8 µM | 21.7 µM
14 | O=C(NC1CCC(COC(=O)N2CCCC2)CC1)OCc1cc(Cl)nc(Cl)c1 (stereo not shown) [Example 45, pyrrolidine-1-carboxylic acid 4-(2,6-dichloro-pyridin-4-ylmethoxycarbonylamino)-cyclohexylmethyl ester] | 7.5 µM | 9.9 µM
